Reference: ChEMBL document CHEMBL5120862, “Novel non-covalent LSD1 inhibitors endowed with anticancer effects in leukemia and solid tumor cellular models” (Eur J Med Chem, 2022)
pIC50, pKi: −log10 of the molar value. Calls of active or inactive are those of the source. No cut-off for these calls is given here.

Columns and labels:
[1] = test system: MV4-11; assay: Induction of cell cycle arrest in human MV4-11 cells assessed as accumulation of cells at G1 phase at 0.2 to […] incubated for 24 hrs; type: functional, cell-based; settings: dose 0.2-2.5 µM
[2] = Cytotoxicity against HMEC cells assessed as residual cell viability at 0.5 uM incubated for 72 hrs by MTT assay relative to control; type: toxicity, cell-based; settings: human, read-out: Activity
[3] = target: T1, MAO-B (amine oxidase [flavin-containing] B) (Homo sapiens, UniProt P27338); assay: Inhibition of human MAO-B using p-tyramine as substrate at 100 uM by fluorimetric analysis relative to control; settings: human MAO-B enzyme, probe p-tyramine
T1 sequence (P27338 whole entry): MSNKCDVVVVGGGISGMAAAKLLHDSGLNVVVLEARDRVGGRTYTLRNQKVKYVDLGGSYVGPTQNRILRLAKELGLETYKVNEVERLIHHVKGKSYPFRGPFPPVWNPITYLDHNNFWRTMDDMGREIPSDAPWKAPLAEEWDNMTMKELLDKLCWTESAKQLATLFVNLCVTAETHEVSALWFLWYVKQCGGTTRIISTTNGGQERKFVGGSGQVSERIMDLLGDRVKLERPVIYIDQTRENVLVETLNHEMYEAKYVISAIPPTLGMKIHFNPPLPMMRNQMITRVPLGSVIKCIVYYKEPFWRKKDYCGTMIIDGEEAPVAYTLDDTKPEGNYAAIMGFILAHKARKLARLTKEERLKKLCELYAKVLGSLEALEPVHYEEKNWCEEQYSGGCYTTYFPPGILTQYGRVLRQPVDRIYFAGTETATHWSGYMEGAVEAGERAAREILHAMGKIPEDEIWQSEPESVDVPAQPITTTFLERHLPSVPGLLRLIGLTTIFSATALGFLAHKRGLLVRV

[4] = test system: RD; assay: Antiproliferative activity against human RD cells assessed as inhibition of cell growth incubated for 144 hrs; type: functional, cell-based
[5] = test system: MDA-MB-231; assay: Antiproliferative activity against human MDA-MB-231 cells assessed as inhibition of cell growth measured after 72 hrs by MTT assay; type: functional, cell-based; settings: MDA-MB-231, 72 h
[6] = target: T2, Histone-lysine N-methyltransferase EHMT2 (Homo sapiens, UniProt Q96KQ7); assay: Inhibition of G9a (unknown origin) assessed as reduction in substrate methylation using histone H3 and SAM as substrate measured after 15 to 60 mins by microfluidic capillary electrophoresis analysis
T2 sequence (Q96KQ7 whole entry): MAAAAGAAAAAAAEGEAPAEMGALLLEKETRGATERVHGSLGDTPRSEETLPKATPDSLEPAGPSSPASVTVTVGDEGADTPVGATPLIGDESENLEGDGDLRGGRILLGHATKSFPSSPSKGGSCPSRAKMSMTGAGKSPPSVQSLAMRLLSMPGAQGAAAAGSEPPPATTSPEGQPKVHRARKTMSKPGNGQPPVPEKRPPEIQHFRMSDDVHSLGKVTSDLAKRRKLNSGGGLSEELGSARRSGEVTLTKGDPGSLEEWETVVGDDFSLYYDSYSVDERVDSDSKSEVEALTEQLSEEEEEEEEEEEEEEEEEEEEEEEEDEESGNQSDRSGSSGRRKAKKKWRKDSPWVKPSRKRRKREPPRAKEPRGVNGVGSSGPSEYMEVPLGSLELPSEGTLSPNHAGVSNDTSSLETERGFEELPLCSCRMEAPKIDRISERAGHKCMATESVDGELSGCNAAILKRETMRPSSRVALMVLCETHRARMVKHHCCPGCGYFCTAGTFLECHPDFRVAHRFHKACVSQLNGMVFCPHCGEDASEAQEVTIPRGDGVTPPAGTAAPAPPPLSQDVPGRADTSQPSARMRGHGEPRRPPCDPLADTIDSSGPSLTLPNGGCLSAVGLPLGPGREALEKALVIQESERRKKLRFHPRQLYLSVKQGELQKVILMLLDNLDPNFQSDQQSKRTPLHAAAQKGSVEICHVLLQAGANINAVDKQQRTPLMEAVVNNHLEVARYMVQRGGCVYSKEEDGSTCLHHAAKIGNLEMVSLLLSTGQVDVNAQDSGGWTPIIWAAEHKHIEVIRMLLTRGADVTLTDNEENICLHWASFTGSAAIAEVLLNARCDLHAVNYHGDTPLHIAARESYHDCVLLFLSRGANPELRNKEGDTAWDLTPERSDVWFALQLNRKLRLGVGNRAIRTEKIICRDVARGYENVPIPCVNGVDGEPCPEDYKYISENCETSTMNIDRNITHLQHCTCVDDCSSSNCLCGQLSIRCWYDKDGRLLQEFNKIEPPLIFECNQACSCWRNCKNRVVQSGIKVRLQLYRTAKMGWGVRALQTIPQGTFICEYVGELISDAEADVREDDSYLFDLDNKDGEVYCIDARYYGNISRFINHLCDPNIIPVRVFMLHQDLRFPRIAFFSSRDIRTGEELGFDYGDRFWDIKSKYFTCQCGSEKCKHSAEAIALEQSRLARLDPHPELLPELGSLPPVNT

[7] = test system: SJRH30; assay: Antiproliferative activity against human Rh30 cells assessed as inhibition of cell growth incubated for 24 hrs; type: functional, cell-based; settings: SJRH30, 24 h
[8] = test system: THP-1; assay: Antiproliferative activity against human THP-1 cells assessed as inhibition of cell growth incubated for 24 hrs by CellTiter-Glo luminescent cell viability assay; type: functional, cell-based; settings: THP-1, 24 h
[9] = test system: MV4-11; assay: Antiproliferative activity against human MV4-11 cells assessed as inhibition of cell growth at 1 uM incubated for 144 hrs by trypan blue staining based analysis; type: functional
[10] = test system: SJRH30; assay: Antiproliferative activity against human Rh30 cells assessed as inhibition of cell growth incubated for 72 hrs; type: functional, cell-based; settings: SJRH30, 72 h
[11] = test system: RD; assay: Antiproliferative activity against human RD cells assessed as inhibition of cell growth incubated for 72 hrs; type: functional, cell-based
[12] = test system: SJRH30; assay: Induction of apoptosis in human Rh30 cells assessed as increase in caspase 3/7 level at 2 uM incubated for 24 hrs; type: functional, cell-based
[13] = target: Lysine-specific histone demethylase 1A (Homo sapiens) (UniProt O60341); assay: Inhibition of LSD1 in human RD cells assessed as increase in H3K4me2 level at 1 uM incubated for 48 hrs by Western blot analysis; type: cell-based
[14] = test system: RD; assay: Antiproliferative activity against human RD cells assessed as reduction in live cells at 2 uM incubated for 72 hrs by calceinAM/propidium iodide staining based fluorescence microscopy; type: functional, cell-based
[15] = test system: THP-1; assay: Antiproliferative activity against human THP-1 cells assessed as inhibition of cell growth incubated for 72 hrs by CellTiter-Glo luminescent cell viability assay; type: functional, cell-based; settings: THP-1, 72 h
[16] = Cytotoxicity against human AHH-1 cells assessed as residual cell viability at 1 uM measured after 72 hrs by MTT assay relative to control; type: toxicity, cell-based; settings: read-out: Activity
[17] = test system: SJRH30; assay: Antiproliferative activity against human Rh30 cells assessed as reduction in live cells at 2 uM incubated for 24 hrs by calceinAM/propidium iodide staining based fluorescence microscopy; type: functional, cell-based
[18] = target: Lysine-specific histone demethylase 1A (Homo sapiens) (UniProt O60341); assay: Inhibition of LSD1 in human MV4-11 cells assessed as increase in H3K4me2 level at 0.2 to […] incubated for 24 hrs by Western blot analysis; type: cell-based; settings: dose 0.2-2.5 µM
[19] = test system: SJRH30; assay: Antiproliferative activity against human Rh30 cells assessed as inhibition of cell growth incubated for 144 hrs; type: functional, cell-based; settings: SJRH30, 144 h

inhibition at 100 µM [3]: 0.5%
pIC50 [5]: 6.40
pKi [6]: 4.40
pIC50 [8]: 6.57
inhibition [13]: Active
pIC50 [15]: 6.77
inhibition [18]: Active
SMILES: COc1cc2c(NC3CCN(Cc4ccccc4)CC3)nc(NCCCN(C)C)nc2cc1OCc1ccccc1
Activity [1]: Active
viability at 72 h, 0.5 µM [2]: 93%
pIC50 [4]: 6.14
pIC50 [7]: 5.91
inhibition [9]: Active
pIC50 [10]: 6.02
pIC50 [11]: 6.07
Activity [12]: Active
Activity [14]: Active
viability at 72 h, 1 µM [16]: 90%
Activity [17]: Active
pIC50 [19]: 6.17
